Experimental findings from US20200291018A1, “TAM KINASE INHIBITORS” (SYROS PHARMACEUTICALS, INC., priority 2017, published 2020) are described below.

Assay [1] concerns the target T1, FLT3 (Homo sapiens, UniProt P36888).
T1 sequence (P36888 27-993): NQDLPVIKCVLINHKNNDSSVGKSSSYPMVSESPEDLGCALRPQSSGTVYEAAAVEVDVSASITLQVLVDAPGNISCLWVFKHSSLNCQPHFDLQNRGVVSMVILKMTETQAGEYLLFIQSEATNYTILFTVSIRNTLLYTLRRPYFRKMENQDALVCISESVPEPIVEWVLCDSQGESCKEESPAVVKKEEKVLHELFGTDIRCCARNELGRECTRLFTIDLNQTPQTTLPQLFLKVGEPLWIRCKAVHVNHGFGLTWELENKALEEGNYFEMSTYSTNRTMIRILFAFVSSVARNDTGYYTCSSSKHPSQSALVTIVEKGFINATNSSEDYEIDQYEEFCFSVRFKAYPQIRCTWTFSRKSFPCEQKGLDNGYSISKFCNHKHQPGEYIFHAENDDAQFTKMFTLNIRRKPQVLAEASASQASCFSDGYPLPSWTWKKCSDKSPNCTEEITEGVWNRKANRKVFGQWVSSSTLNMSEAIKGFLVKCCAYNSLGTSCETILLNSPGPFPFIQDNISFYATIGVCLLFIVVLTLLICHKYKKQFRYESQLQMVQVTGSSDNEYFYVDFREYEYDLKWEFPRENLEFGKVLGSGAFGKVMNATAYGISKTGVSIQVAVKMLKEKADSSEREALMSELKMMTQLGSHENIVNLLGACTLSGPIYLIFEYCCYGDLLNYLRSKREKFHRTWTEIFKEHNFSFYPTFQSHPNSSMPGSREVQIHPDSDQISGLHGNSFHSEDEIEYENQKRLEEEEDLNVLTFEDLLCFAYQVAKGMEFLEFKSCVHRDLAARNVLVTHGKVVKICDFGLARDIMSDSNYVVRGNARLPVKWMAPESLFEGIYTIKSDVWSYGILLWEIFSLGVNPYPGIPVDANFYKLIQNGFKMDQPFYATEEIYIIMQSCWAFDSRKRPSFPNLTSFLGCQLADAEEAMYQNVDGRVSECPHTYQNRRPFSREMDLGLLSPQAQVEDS
The experiment in a line: TR-FRET kinase activity assay, FLT3. As to conditions: ATP at Km, 60 minutes. Type of assay: biochemical. How it is done: (§1) IC50 values for compound inhibition of AXL, FLT3, MERTK and TYRO3 activity were determined using a TR-FRET activity assay. A peptide substrate with a fluorescent label is phosphorylated on a tyrosine by each enzyme, where the now phosphorylated product is bound by a Europium-labeled antibody specific to that phosphorylation site. The proximity between the antibody and the substrate gives a signal known as TR-FRET. As the enzyme is inhibited by compound, less phosphorylated peptide product is made, causing a decrease in overall signal.
(§2) Activity assays were performed in a 384-well, small volume, black microplates in an active enzyme volume of 10 uL and final developed volume of 20 uL. Final assay conditions are 50 mM HEPES pH 7.5, 10 mM MgCl2, 1 mM EGTA, 0.01% Brij 35 and 1 mM DTT, all at RT. Enzyme, substrate-labeled peptide and compound are mixed, and then the reaction is initiated with the addition of ATP at Km concentration for each enzyme. The reaction is allowed to run 60 minutes and then quenched with a 12.5 mM EDTA (ethylenediamine tetraacetic acid) solution. The plate is then developed with the addition of Europium-labeled antibody for a final volume of 20 uL and is then incubated for 30 minutes in darkness. Plates are read in a PHERASTAR® plate reader. Data are analyzed in GraphPad PRISM.
Background: TR-FRET usually uses a lanthanide donor and a delayed reading to cut background.

The target of assay [2] is T2, AXL (Homo sapiens, UniProt P30530).
T2 sequence (P30530 26-894): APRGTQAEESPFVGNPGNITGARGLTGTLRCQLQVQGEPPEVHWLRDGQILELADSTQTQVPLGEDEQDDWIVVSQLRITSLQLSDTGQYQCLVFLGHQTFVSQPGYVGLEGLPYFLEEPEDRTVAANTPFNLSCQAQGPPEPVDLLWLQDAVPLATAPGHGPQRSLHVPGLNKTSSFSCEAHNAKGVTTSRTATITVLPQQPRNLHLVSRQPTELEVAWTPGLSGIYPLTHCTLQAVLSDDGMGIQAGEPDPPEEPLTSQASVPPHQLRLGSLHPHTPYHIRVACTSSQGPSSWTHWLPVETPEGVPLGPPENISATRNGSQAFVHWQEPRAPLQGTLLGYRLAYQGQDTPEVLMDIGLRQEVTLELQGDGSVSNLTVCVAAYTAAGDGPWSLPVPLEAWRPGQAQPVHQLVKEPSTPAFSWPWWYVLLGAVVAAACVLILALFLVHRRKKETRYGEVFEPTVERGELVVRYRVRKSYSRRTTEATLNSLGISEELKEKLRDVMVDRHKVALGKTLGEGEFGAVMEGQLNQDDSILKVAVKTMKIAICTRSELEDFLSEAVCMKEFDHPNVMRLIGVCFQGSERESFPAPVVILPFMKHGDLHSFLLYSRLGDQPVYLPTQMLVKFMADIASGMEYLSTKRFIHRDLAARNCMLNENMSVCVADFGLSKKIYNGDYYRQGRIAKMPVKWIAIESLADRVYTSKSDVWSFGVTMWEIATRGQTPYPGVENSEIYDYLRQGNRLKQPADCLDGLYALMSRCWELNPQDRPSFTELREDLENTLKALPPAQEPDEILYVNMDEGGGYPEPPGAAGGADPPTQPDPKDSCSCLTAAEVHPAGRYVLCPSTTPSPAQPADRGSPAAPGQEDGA
The experiment in a line: TR-FRET kinase activity assay, AXL. The class given is biochemical. As to conditions: ATP at Km, 60 minutes. How it is done:
as §1, §2

With `O[C@H]1CC[C@H](c2cnc(OC3CCNCC3)c3cnc(N[C@@H]4CCOC4)nc32)CC1` [Compound 213], the IC50 (commonly the midpoint of a concentration-inhibition curve) lay in the range of 1000 to 10000 nM in assay [1] and 100 to 1000 nM in assay [2].
The corresponding values for `CCCC(C)Nc1ncc2c(O[C@@H]3CCCN(C)C3)ncc([C@H]3CC[C@H](O)CC3)c2n1` (some centres unmarked) [Compound 214] are 1000 to 10000 nM and 1000 to 10000 nM.
For `CCOc1ncc(C2CCN(C)CC2)c2nc(N[C@@H](C)CC)ncc12` [Compound 215], in that order: 1000 to 10000 nM and 1000 to 10000 nM.
In the case of `O[C@H]1CC[C@H](c2cnc(OC3CCNCC3)c3cnc(N[C@H]4CCCOC4)nc32)CC1` [Compound 216], the half-maximal inhibitory concentration (IC50) in assay [1] and in assay [2] was 1000 to 10000 nM each time.
With `CC[C@H](C)Nc1ncc2c(NC3CCOCC3)ncc([C@H]3CC[C@H](O)CC3)c2n1` [Compound 217], the IC50 in assay [1] and in assay [2] was 1000 to 10000 nM each time.
As to `C[C@@H](Nc1ncc2c(OC3CCNCC3)ncc([C@H]3CC[C@H](O)CC3)c2n1)c1ccccc1` [Compound 218], the IC50 in assay [1] and in assay [2] was 1000 to 10000 nM throughout.
Consider `CC[C@H](C)Nc1ncc2c(NC3CCN(C)CC3)ncc([C@H]3CC[C@H](O)CC3)c2n1` [Compound 220], for which the IC50 is 100 to 1000 nM in assay [1] and not above 100 nM in assay [2].
For the compound `CC[C@H](C)Nc1ncc2c(OC3CCN(C)CC3)ncc([C@H]3CC[C@H](O)CC3)c2n1` [Compound 221], the IC50 in assay [1] was 1000 to 10000 nM; in assay [2] it was 100 to 1000 nM.
For `CC[C@H](C)Nc1ncc2c(N3CC[C@@H](N(C)C)C3)ncc([C@H]3CC[C@H](O)CC3)c2n1` [Compound 222], in that order: 1000 to 10000 nM and 100 to 1000 nM.
For `CC[C@H](C)Nc1ncc2c(OC3C[C@H]4CC[C@@H](C3)O4)ncc([C@H]3CC[C@H](O)CC3)c2n1` (some centres unmarked) [Compound 223], in that order: 100 to 1000 nM and 100 to 1000 nM.
For `O[C@H]1CC[C@H](c2cnc(OC3CCNCC3)c3cnc(NCCC(F)(F)F)nc32)CC1` [Compound 224], the IC50 in assay [1] and in assay [2] was not above 100 nM each time.
As for `CC[C@H](C)Nc1ncc2c(=O)n(C3CCOCC3)cc([C@H]3CC[C@H](O)CC3)c2n1` [Compound 225], the IC50 in assay [1] was 1000 to 10000 nM; in assay [2] it was 100 to 1000 nM.
The corresponding values for `CC[C@H](C)Nc1ncc2c(OC3CCOCC3)ncc([C@H]3CC[C@H](O)CC3)c2n1` [Compound 226] are 100 to 1000 nM and 100 to 1000 nM.
The corresponding values for `CC[C@H](C)Nc1ncc2c(OC3CC(C)(C)N(C)C(C)(C)C3)ncc([C@H]3CC[C@H](O)CC3)c2n1` [Compound 227] are 100 to 1000 nM and not above 100 nM.
The corresponding values for `CCC(CC)Nc1ncc2c(OC3CCNCC3)ncc([C@H]3CC[C@H](O)CC3)c2n1` [Compound 228] are 1000 to 10000 nM and 100 to 1000 nM.
Take `CC[C@H](C)Nc1ncc2c(O[C@H]3CC[C@H](O)CC3)ncc([C@H]3CC[C@H](O)CC3)c2n1` [Compound 229]: the IC50 in assay [1] and in assay [2] was 100 to 1000 nM each time.
For the compound `CC[C@H](C)Nc1ncc2c(Cl)ncc([C@H]3CC[C@H](O)CC3)c2n1` [Compound 230], the IC50 in assay [1] was in the range of 1000 to 10000 nM; in assay [2], 100 to 1000 nM.
For `CC[C@H](C)NC1=NC2C([C@H]3CC[C@H](O)CC3)=CN(C(C)C)C(=O)C2C=N1` (some centres unmarked) [Compound 231], in that order: 1000 to 10000 nM and 100 to 1000 nM.
On to `O[C@H]1CC[C@H](c2cnc(OC3CCNCC3)c3cnc(N[C@@H]4CCCOC4)nc32)CC1` [Compound 232], for which the IC50 in assay [1] and in assay [2] was 100 to 1000 nM each time.
Take `CC[C@H](C)Nc1ncc2c(OC3CCN(S(C)(=O)=O)CC3)ncc([C@H]3CC[C@H](O)CC3)c2n1` [Compound 233]: the IC50 was 100 to 1000 nM in assay [1] and not above 100 nM in assay [2].
The corresponding values for `CC[C@H](C)Nc1ncc2c(=O)n(C3CCN(S(C)(=O)=O)CC3)cc([C@H]3CC[C@H](O)CC3)c2n1` [Compound 234] are 1000 to 10000 nM and 100 to 1000 nM.
For `CCOc1ncc([C@H]2CC[C@H](O)CC2)c2nc(N[C@@H](C)CC)ncc12` [Compound 235], in that order: 100 to 1000 nM and not above 100 nM.
The corresponding values for `CCOc1ncc(CC2CCNCC2)c2nc(N[C@@H](C)CC)ncc12` [Compound 236] are 100 to 1000 nM and 100 to 1000 nM.
Consider `CC[C@H](C)Nc1ncc2c(OC3C[C@H]4CC[C@@H](C3)O4)ncc([C@H]3CC[C@H](O)CC3)c2n1` (some centres unmarked) [Compound 237], for which the IC50 in assay [1] and in assay [2] was 1000 to 10000 nM in each case.
On to `CC[C@H](C)Nc1ncc2c(NC34CCC(O)(CC3)CC4)ncc([C@H]3CC[C@H](O)CC3)c2n1` [Compound 238], for which the IC50 in assay [1] and in assay [2] was 100 to 1000 nM in each case.
Regarding `CC[C@H](C)Nc1ncc2c(OC3CCN(C)CC3)ncc([C@H]3CC[C@H](O)CC3)c2n1` [Compound 239], the figures for the IC50 in assay [1] and in assay [2] were 1000 to 10000 nM and 100 to 1000 nM, respectively.
For `CC[C@H](C)Nc1ncc2c(C3CCN(C)CC3)ncc([C@H]3CC[C@H](O)CC3)c2n1` [Compound 240], in that order: 1000 to 10000 nM and 1000 to 10000 nM.
For `CC[C@H](C)Nc1ncc2c(OC(CO)CO)ncc([C@H]3CC[C@H](O)CC3)c2n1` [Compound 241], in that order: 1000 to 10000 nM and 1000 to 10000 nM.
As to `COC[C@H](C)Nc1ncc2c(OC3CCOCC3)ncc(C3=CCC4(CC3)OCCO4)c2n1` [Compound 242], the IC50 in assay [1] and in assay [2] was 1000 to 10000 nM throughout.
Regarding `COC[C@H](C)Nc1ncc2c(OC3CCOCC3)ncc(C3CCC4(CC3)OCCO4)c2n1` [Compound 243], the IC50 in assay [1] and in assay [2] was 1000 to 10000 nM each time.
Regarding `CCc1ncc([C@H]2CC[C@H](O)CC2)c2nc(N[C@@H](C)CC)ncc12` [Compound 244], the IC50 in assay [1] was 1000 to 10000 nM; in assay [2], 100 to 1000 nM.
For `CC[C@H](C)Nc1ncc2c(OCC(F)(F)F)ncc([C@H]3CC[C@H](O)CC3)c2n1` [Compound 245], in that order: 100 to 1000 nM and 100 to 1000 nM.
For `CC[C@H](C)Nc1ncc2c(OC3CC(C)(C)NC(C)(C)C3)ncc([C@H]3CC[C@H](O)CC3)c2n1` [Compound 246], in that order: 1000 to 10000 nM and 100 to 1000 nM.
For `CC[C@H](C)Nc1ncc2c(OC3C[C@@H](C)O[C@@H](C)C3)ncc([C@H]3CC[C@H](O)CC3)c2n1` (some centres unmarked) [Compound 247], in that order: 1000 to 10000 nM and 1000 to 10000 nM.
